Assay: Specific surface area of the active substance by the BET method
Format: physicochemical
Details: peptide salt after lyophilization (or starting material)
Experimental: For all these examples, the inherent viscosities (IV) were measured by the conventional methods of flow time measurement, as described for example in “Pharmacopoée Européenne”, 1997, pages 17-18 (capillary tube method). Unless stated otherwise, these viscosities have been measured in chloroform at a concentration of 0.1% at 25° C. or in hexaisofluoropropanol at a concentration of 0.5% at 30° C. Where measured, the specific surface area of the active substance was determined by the so-called BET method (absorption of a nitrogen monolayer on the active substance), a method well known to a person skilled in the art.
For “triptorelin acetate [unmodified triptorelin acetate, reference compound]”, the Specific surface area was 0.8 m^2/g.
“triptorelin acetate [modified triptorelin acetate]” showed a Specific surface area of 4.7 m^2/g.
`CC(C)[C@@H]1NC(=O)[C@H](CCCCN)NC(=O)[C@@H](Cc2c[nH]c3ccccc23)NC(=O)[C@H](Cc2ccc(O)cc2)NC(=O)[C@@H](NC(=O)[C@H](N)Cc2ccc3ccccc3c2)CSSC[C@@H](C(=O)N[C@H](C(N)=O)[C@@H](C)O)NC1=O` [Example 13, lanreotide acetate] showed a Specific surface area of 36 m^2/g.
For `CC(C)[C@@H]1NC(=O)[C@H](CCCCN)NC(=O)[C@@H](Cc2c[nH]c3ccccc23)NC(=O)[C@H](Cc2ccc(O)cc2)NC(=O)[C@@H](NC(=O)[C@H](N)Cc2ccc3ccccc3c2)CSSC[C@@H](C(=O)N[C@H](C(N)=O)[C@@H](C)O)NC1=O` [modified lanreotide acetate, lanreotide acetate], the Specific surface area was 4.4 m^2/g.
With `CC(C)[C@@H]1NC(=O)[C@H](CCCCN)NC(=O)[C@@H](Cc2c[nH]c3ccccc23)NC(=O)[C@H](Cc2ccc(O)cc2)NC(=O)[C@@H](NC(=O)[C@H](N)Cc2ccc3ccccc3c2)CSSC[C@@H](C(=O)N[C@H](C(N)=O)[C@@H](C)O)NC1=O` [Example 14, lanreotide acetate] the Specific surface area was 43 m^2/g.
